In patent US11814352B2, “Salts formed by 2-(1-acyloxy-n-pentyl) benzoic acid and basic amino acid or aminoguanidine, and preparation method and application thereof” (JIANGSU KANION PHARMACEUTICAL CO., LTD., priority 2018, dated 2023):
Converted amounts (≈) assume the structure as drawn. “And” between values parts separate entries of the source, which are not always exact repeats. Equal entries are not always repeated. Where two headings read alike, the source gives them in different places.

How the values were obtained:
[1] = tested on: AA induced platelet aggregation; test: In vitro anti-platelet aggregation, AA induced (turbidimetry, PRP); type: cell-based, rabbits; conditions: read-out: IC50 AA (1 mM); rabbit PRP, inducer AA 1 mM, 37° C.
[2] = tested on: histidine-deficient TA97, TA98, TA100 and TA102 strains of Salmonella typhimurium; test: Bacterial reverse mutation test (Ames test); conditions: 0.1-1000 μg/dish, with and without S9
Method: The test bacteria are the histidine-deficient TA97, TA98, TA100 and TA102 strains of Salmonella typhimurium, and the dose range of the test sample is 0.1-1000 μg/dish.

[3] = Preliminary stability of sample solution in water and methanol; type: physicochemical; conditions: 1 mg/mL stock prepared 2018 Jun. 25, analysed Jun. 29, Jul. 2, Jul. 7
Method: 2018 Jun. […] For each sample test, the stock solution was taken and diluted freshly.
2018 Jun. 29 200 μL of the stock solution was pipetted, 3800 μL of a mobile phase in the initial ratio was added, and 10 μL of a test sample with a concentration of 50 μg/mL was prepared for injection and analysis.
2018 Jul. 2 200 μL of the stock solution was pipetted, 3800 μL of a mobile phase in the initial ratio was added, and 10 μL of a test sample with a concentration of 50 μg/mL was prepared for injection and analysis.
2018 Jul. 7 200 μL of the stock solution was pipetted, 3800 μL of a mobile phase in the initial ratio was added, and 10 μL of a test sample with a concentration of 50 μg/mL was prepared for injection and analysis.
29, 2018 Jul. 2, and 2018 Jul.

[4] = tested on: ICR mice; test: Acute toxicity test, tail vein injection in mice; conditions: for Number of deaths (quantity): 10 animals, 14 days
[5] = Acute toxicity test, tail vein injection in mice; conditions: female, ICR, mouse, in vivo, iv, LD50 value, Bliss method
[6] = tested on: ADP induced platelet aggregation; test: In vitro anti-platelet aggregation, ADP induced (turbidimetry, PRP); type: cell-based, rabbits; conditions: read-out: IC50 ADP (10 μM); rabbit PRP, inducer ADP 10 μM, 37° C.
[7] = target: hERG potassium channel of CHO-hERG cells (Homo sapiens, UniProt Q12809); test: Effect on hERG potassium channel (automatic patch clamp)
[8] = Solubility test (saturated solubility in water); type: physicochemical; conditions: 25±2° C.; for solubility at 30 min: 25 °C, thermodynamic from solid
Method: Test method: 10 mg of a test sample (solid was ground into fine powder) was weighed and added to a certain amount of solvent at 25±2° C. (the temperature of a water bath is controlled at 25° C.), and the solution was shaken vigorously for 30 s every 5 min. The dissolution was observed within 30 min. When there were no visible solute particles or droplets, the test sample was regarded as completely dissolved.

[9] = tested on: bleeding time in mice after tail cutting; test: Effect on bleeding time in mice after tail cutting; type: in vivo, Kunming mice; conditions: 5 mg/kg orally once a day for 14 days, 1 h after last dose
Method: SPF Kunming mice, weighing 18-22 g, purchased from Beijing Vital River Laboratory Animal Technology Co., Ltd., having a certificate number of SCXK (Beijing) 2010-0002, raised in an SPF animal room with indoor temperature controlled at 23±2° C., and allowed to freely eat and drink. The day and night time was 12 h/12 h.
The administration dose level of the positive drug groups and the test drug groups was 5 mg/kg, and the same amount of normal saline was given to the negative control group. All mice were administered for 14 consecutive days orally once a day. One hour after the last dose, the mice were anesthetized with 1-2% isoflurane, and the tails were cut for 5 mm. The tips of the tails were absorbed dry with filter paper every 30 seconds until the bleeding stopped naturally. Bleeding time is defined as the interval between the start and stop of bleeding.

hERG potassium channel of CHO-hERG cells, sequence (Q12809 whole entry): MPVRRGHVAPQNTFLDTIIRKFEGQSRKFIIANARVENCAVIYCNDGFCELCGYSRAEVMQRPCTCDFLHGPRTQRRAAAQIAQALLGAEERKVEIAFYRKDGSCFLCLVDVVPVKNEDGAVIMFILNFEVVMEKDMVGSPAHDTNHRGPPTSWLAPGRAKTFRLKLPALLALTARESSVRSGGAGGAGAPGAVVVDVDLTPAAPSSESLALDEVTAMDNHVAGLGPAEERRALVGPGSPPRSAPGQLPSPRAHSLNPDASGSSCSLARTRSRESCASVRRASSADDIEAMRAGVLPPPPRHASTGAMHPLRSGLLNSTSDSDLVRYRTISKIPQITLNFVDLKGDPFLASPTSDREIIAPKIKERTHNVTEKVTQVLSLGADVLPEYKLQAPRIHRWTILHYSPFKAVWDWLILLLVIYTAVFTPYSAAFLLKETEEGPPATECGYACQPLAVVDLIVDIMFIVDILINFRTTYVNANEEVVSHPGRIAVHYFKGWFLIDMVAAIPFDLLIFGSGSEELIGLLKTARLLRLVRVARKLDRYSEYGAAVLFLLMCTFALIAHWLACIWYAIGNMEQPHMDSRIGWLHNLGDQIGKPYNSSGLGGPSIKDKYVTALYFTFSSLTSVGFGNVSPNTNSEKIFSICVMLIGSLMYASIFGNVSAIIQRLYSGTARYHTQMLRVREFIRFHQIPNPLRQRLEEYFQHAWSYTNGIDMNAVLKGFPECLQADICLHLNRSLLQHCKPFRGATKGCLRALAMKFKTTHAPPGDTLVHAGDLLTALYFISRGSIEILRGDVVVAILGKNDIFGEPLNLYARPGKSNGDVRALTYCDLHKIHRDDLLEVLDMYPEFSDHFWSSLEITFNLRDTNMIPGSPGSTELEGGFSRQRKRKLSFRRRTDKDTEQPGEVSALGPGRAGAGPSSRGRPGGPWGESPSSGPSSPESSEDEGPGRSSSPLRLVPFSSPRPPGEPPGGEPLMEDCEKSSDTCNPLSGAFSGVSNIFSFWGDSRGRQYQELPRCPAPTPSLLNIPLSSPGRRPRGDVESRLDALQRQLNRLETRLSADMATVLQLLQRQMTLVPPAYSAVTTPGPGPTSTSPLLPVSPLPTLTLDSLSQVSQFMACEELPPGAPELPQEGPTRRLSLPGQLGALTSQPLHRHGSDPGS

With `CCCC[C@H](OC(C)=O)c1ccccc1C(=O)O` [I1s, L-Arginine (S)-2-(1-Acetoxy-n-Pentyl) Benzoate] the IC50 [1] was 160 ± 20 µM, the “Ames test result (mutagenicity)” value [2] was “negative” and the “Stability of the sample solution in CH3OH” value [3] was “basically stable”. The “Stability of the sample solution in H2O” value [3] was “basically stable”, the Symptoms of poisoning ([4]; higher dose in the tail vein) was “convulsions and decreased activity” and the “Body weight D 1” value ([4]; i.v. 700 mg/kg) was 19.4 ± 0.6 g. The “Body weight D 7” value ([4]; i.v. 700 mg/kg) was 21.0 ± 0.6 g, the “Body weight D 14” value ([4]; i.v. 700 mg/kg) was 22.3 ± 0.7 g and the “Number of deaths (quantity)” value ([4]; i.v. 700 mg/kg) was 1. The “Body weight D 1” value ([4]; i.v. 900 mg/kg) was 19.8 ± 0.5 g, the “Body weight D 7” value ([4]; i.v. 900 mg/kg) was 20.9 ± 0.6 g and the “Body weight D 14” value ([4]; i.v. 900 mg/kg) was 22.2 ± 0.6 g. For the same compound, the “Number of deaths (quantity)” value ([4]; i.v. 900 mg/kg) was 2, the “Body weight D 1” value ([4]; i.v. 1100 mg/kg) was 19.4 ± 0.6 g and the “Body weight D 7” value ([4]; i.v. 1100 mg/kg) was 21.0 ± 0.5 g. The “Body weight D 14” value ([4]; i.v. 1100 mg/kg) was 22.0 ± 0.5 g, the “Number of deaths (quantity)” value ([4]; i.v. 1100 mg/kg) was 4 and the “Body weight D 1” value ([4]; i.v. 1300 mg/kg) was 19.5 ± 0.4 g. The “Body weight D 7” value ([4]; i.v. 1300 mg/kg) was 20.8 ± 0.6 g, the “Body weight D 14” value ([4]; i.v. 1300 mg/kg) was 22.1 ± 0.6 g and the “Number of deaths (quantity)” value ([4]; i.v. 1300 mg/kg) was 6. For the same compound, the “Body weight D 1” value ([4]; i.v. 1500 mg/kg) was 19.9 ± 0.2 g, the “Body weight D 7” value ([4]; i.v. 1500 mg/kg) was 21.0 g and the “Body weight D 14” value ([4]; i.v. 1500 mg/kg) was 23.6 g. For the same compound, the “Number of deaths (quantity)” value ([4]; i.v. 1500 mg/kg) was 9, the LD50 at 14 days [5] was 1120 mg/kg and the LD50 at 14 days ([5]; interval in parentheses) was 975 to 1290 mg/kg. The IC50 [6] was 720 ± 80 µM, the IC50 [7] was > 40 µM and the solubility at 30 min ([8]; read-out: Saturated solubility in H2O, Mean) was 136 mg/mL (≈ 544 mM). The solubility at 30 min ([8]; read-out: Saturated solubility in H2O, dissolved sample amount (single determinations)) was 134 mg/mL (≈ 535 mM), the “Saturated solubility in H2O, dissolved sample amount (single determinations)” value [8] was 134.24 mg/mL and 138.23 mg/mL and 138.40 mg/mL and the Bleeding time [9] was 25.31 ± 1.01 min.
